Literature values as cited in publication PMC8198792, “Prediction of Anticancer Peptides with High Efficacy and Low Toxicity by Hybrid Model Based on 3D Structure of Peptides” (International Journal of Molecular Sciences, 2021).
Where two headings read alike, the source gives them in different places.

System: cancer cell lines
Parameters: method as in 6 sources, ref CancerPPD [45] and SATPdb ||| ref CancerPPD/SATPdb ||| ref CancerPPD, SATPdb, Swissprot (PDB) ||| ref CancerPPD/SATPdb/Swissprot(PDB) ||| ref CancerPPD / SATPdb ||| ...
Conditions: cited from earlier work
Description: Supplement ijms-22-05630-s001.zip/ACPs(seguence).xlsx, sheet "D1" | column: Activity || Supplement ijms-22-05630-s001.zip/ACPs(seguence).xlsx, sheet "D2" | column: Activity || Supplement ijms-22-05630-s001.zip/ACPs(seguence).xlsx, sheet "D3" | column: Activity || (+ 2 further places)

[1] = ACPs dataset D1, label 1 = ACP, 0 = non-ACP (non-anticancer AMPs from SATPdb), ref CancerPPD/SATPdb
[2] = ACPs dataset D4 (sheet "D4"), label 1 = ACP, 0 = non-ACP, ref CancerPPD / SATPdb
[3] = ACPs dataset D4 (sheet "D4"), label 1 = ACP (CancerPPD ID), 0 = non-ACP (non-anticancer AMP, SATPdb ID), ref CancerPPD [45] and SATPdb
[4] = ACPs dataset D1, 1 = ACP (positive), 0 = non-ACP (negative), label taken from databases, ref CancerPPD [45] and SATPdb
[5] = ACPs dataset D4 (sheet "D4"), label 1 = ACP, experimentally validated ACPs, ref CancerPPD [45] and SATPdb
[6] = ACPs dataset D5 (sheet "D5"), label 1 = ACP (positive set), sequences with CancerPPD/SATPdb ID, ref CancerPPD, SATPdb
[7] = ACPs dataset sheet D2, 1 = ACP (CancerPPD/SATPdb ID), 0 = non-ACP (Swissprot/PDB ID), ref CancerPPD, SATPdb, Swissprot (PDB)
[8] = ACPs dataset D5 (sheet "D5"), label 1 = ACP (positive set), 0 = non-ACP (negative set), ref CancerPPD [45] and SATPdb
[9] = ACPs dataset D3 (supplement sheet "D3"), 1 = ACP, 0 = non-ACP, ref CancerPPD [45] and SATPdb
[10] = ACPs dataset D2 (supplement ACPs(seguence).xlsx, sheet D2), dataset label 1/0 (ACP / non-ACP), entries identified by Swissprot(PDB ID), ref CancerPPD/SATPdb/Swissprot(PDB)
[11] = ACPs dataset D5, sheet "D5", label 1 = ACP, 0 = non-ACP, ref CancerPPD [45] and SATPdb

## GIGKFLHSAKKFGKAFVGEIMNSKKKKKKKKKK [satpdb13107]
[1]
  Activity: 0
[2]
  Activity: 0

## GCSRWIIGIHGQICRD [satpdb12437]
[1]
  Activity: 0
[3]
  Activity: 0

## MESQSNAVQLMLGFGTFVLMLLGLVVELIKNSNKK [satpdb12625]
[1]
  Activity: 0
[3]
  Activity: 0

## NHFTLKCPKTALTEPPTLAY [compound 3362]
[4]
  Activity: 1
[5]
  Activity: 1
[6]
  Activity: 1
[7]
  Activity: 1

## ATCDLLSPFKVGHAACAAHCIARGKRGGWCDKRAVCNCRK [satpdb11323]
[4]
  Activity: 0
[3]
  Activity: 0

## ITIPPIIKDTLKKFFKGGIAGVMGKSQ [satpdb11170]
[4]
  Activity: 0
[3]
  Activity: 0

## GTPCGESCVYIPCFTAVVGCTCKDKVCYLN [satpdb10441]
[1]
  Activity: 0
[3]
  Activity: 0

## VLSIVACSSGCGSGKTAASCVETCGNRCFTNVGSLC [satpdb10613]
[4]
  Activity: 0
[3]
  Activity: 0

## SDQGDVAEPKMHKTAPPFDFEAIPEEYLDDES [3B23 X-ray 2.40 C 1-32]
[8]
  Activity: 0
[7]
  Activity: 0

## FLPIIAGIAAKFLPKIFCTISKKC [compound 4359]
[4]
  Activity: 1
[5]
  Activity: 1
[6]
  Activity: 1
[7]
  Activity: 1

## GLFKVIKKVAKVIKKL [compound 4156]
[9]
  Activity: 1
[3]
  Activity: 1
[8]
  Activity: 1

## MRKEFHNVLSSGQLLADKRPARDYNRK [compound 3072]
[4]
  Activity: 1
[5]
  Activity: 1
[6]
  Activity: 1
[7]
  Activity: 1

## SSTSPHRPRFS [satpdb14979]
[4]
  Activity: 1
[5]
  Activity: 1
[6]
  Activity: 1
[7]
  Activity: 1

## EIPSCESSASPDQSDSSVPPEE [satpdb17950]
[4]
  Activity: 1
[5]
  Activity: 1
[6]
  Activity: 1
[7]
  Activity: 1

## FLGMIPKLIKKLIKAFK [compound 3135]
[9]
  Activity: 1
[5]
  Activity: 1
[6]
  Activity: 1

## PAWRKAFRAAWRMLKKAA [compound 1610]
[4]
  Activity: 1
[5]
  Activity: 1
[6]
  Activity: 1
[7]
  Activity: 1

## GSEGPLKPGARIFSFDGKDVLRHPT [compound 4204]
[4]
  Activity: 1
[5]
  Activity: 1
[6]
  Activity: 1
[7]
  Activity: 1

## ENFAGGCATGYLRTADGRCKPTF [1HRL NMR - A 1-23]
[8]
  Activity: 0
[7]
  Activity: 0

## FAKKLAKKLKKLAKKLAKLAKKL [compound 1914]
[9]
  Activity: 1
[5]
  Activity: 1
[6]
  Activity: 1

## TEWSVCNSRCGRGYQKRTR [satpdb19902]
[4]
  Activity: 1
[5]
  Activity: 1
[6]
  Activity: 1
[7]
  Activity: 1

## GVGDLIRKAV SVIKNIV [6GS3 X-ray 1.45 A/B 1-17]
[8]
  Activity: 0
[7]
  Activity: 0

## RGDLLRHVVKILEKYL [compound 1672]
[4]
  Activity: 1
[5]
  Activity: 1
[6]
  Activity: 1
[7]
  Activity: 1

## GVFTLIKGATQLIGKTLGKELGKTGLEIMACKITKQC [satpdb12576]
[1]
  Activity: 0
[3]
  Activity: 0

## FFGWLIKGAIHAGKAIHGLIHRRRH [compound 4436]
[4]
  Activity: 1
[5]
  Activity: 1
[6]
  Activity: 1
[7]
  Activity: 1

## MAKWRCKICGYIYDEDEGDPDNGISPGTKFEDLPDDWVCPLCGAPKSEFERIE [1YK5 X-ray 1.79 A/B/C/D 1-53]
[10]
  Activity: 0
[11]
  Activity: 0

## GLWSKIKEAAKAAGKAALNAVTGLVNQGDQPS [compound 4452]
[4]
  Activity: 1
[5]
  Activity: 1
[6]
  Activity: 1
[7]
  Activity: 1

## KWKSFAKTFKSAKKTVAHTALKAISS [compound 1445]
[4]
  Activity: 1
[5]
  Activity: 1
[6]
  Activity: 1
[7]
  Activity: 1

## KFPKFRRGIPFLFV [satpdb10093]
[4]
  Activity: 0
[3]
  Activity: 0

## FFHHIFRGIVHVGKTIHRLVTG [compound 4437]
[4]
  Activity: 1
[5]
  Activity: 1
[6]
  Activity: 1
[7]
  Activity: 1

## VAKKLAKLAKKLAKLAL [compound 1919]
[9]
  Activity: 1
[3]
  Activity: 1
[8]
  Activity: 1

## KWLRRVWRWWR [compound 1877]
[9]
  Activity: 1
[3]
  Activity: 1
[8]
  Activity: 1

## ALWKNMLKGIGKLAGQAALGAVKTLVGA [compound 1706]
[4]
  Activity: 1
[5]
  Activity: 1
[6]
  Activity: 1
[7]
  Activity: 1

## FKRiVQRiKDFlRNLV [compound 1530]
[9]
  Activity: 1
[5]
  Activity: 1
[6]
  Activity: 1

## FLGGLMKAFPAIICAVTKKC [satpdb13214]
[1]
  Activity: 0
[2]
  Activity: 0

## GIIKKIIKKIIKKI [compound 2840]
[9]
  Activity: 1
[3]
  Activity: 1
[8]
  Activity: 1

## MSGELLNAALLSFGLIFVGWALGALLLKIQGAEE [4OGQ X-ray 2.50，F，1-34]
[8]
  Activity: 0
[7]
  Activity: 0

## GKWKSLLKHILK [compound 3653]
[9]
  Activity: 1
[3]
  Activity: 1
[8]
  Activity: 1

## IYSFDGRDIMTDPSWPQKVIWHGSSPHGVRLVDNYCEAWRTA [satpdb23000]
[4]
  Activity: 1
[5]
  Activity: 1
[6]
  Activity: 1
[7]
  Activity: 1

## ALWKDILKNVGKAAGKAVLNTVTDMVNQ [compound 1707]
[9]
  Activity: 1
[5]
  Activity: 1
[6]
  Activity: 1

## AIGSILGALAKGLPTLISWIKNR [compound 4433]
[4]
  Activity: 1
[5]
  Activity: 1
[6]
  Activity: 1
[7]
  Activity: 1

## LSSTCILVLVKSTY [satpdb19063]
[4]
  Activity: 1
[5]
  Activity: 1
[6]
  Activity: 1
[7]
  Activity: 1

## GFGMALOLLOOVL [compound 3597]
[9]
  Activity: 1
[3]
  Activity: 1
[8]
  Activity: 1

## RCTCTTIISSSSTF [satpdb11144]
[4]
  Activity: 0
[3]
  Activity: 0

## GTFPCGESCVFIPCLTSAIGCSCKSKVCYKN [compound 4418]
[4]
  Activity: 1
[5]
  Activity: 1
[6]
  Activity: 1
[7]
  Activity: 1

## QLKKCWNNYVQGHCRKICRVNEVPEALCENGRYCCLNIKELEAC [satpdb10388]
[4]
  Activity: 0
[3]
  Activity: 0

## SSSGWLCTLTIECGTIICACR [satpdb10412]
[4]
  Activity: 0
[3]
  Activity: 0

## GRLKRLRKKLKKLLKKLS [satpdb12346]
ACPs dataset D3 (sheet "D3"), label 1 = ACP, 0 = non-ACP, ref CancerPPD/SATPdb
  Activity: 0
[2]
  Activity: 0
[11]
  Activity: 0

## KWKSFLKTFKSLKKTVLHTLLkAISS [compound 3767]
[9]
  Activity: 1
[3]
  Activity: 1
[8]
  Activity: 1

## GASCGETCFTGICFTAGCSCNPWPTCTRN [compound 4369]
[4]
  Activity: 1
[5]
  Activity: 1
[6]
  Activity: 1
[7]
  Activity: 1

## GLASFLGKALKAGLKIGSHLLGGAPQQ [satpdb10480]
[4]
  Activity: 0
[3]
  Activity: 0

## DIEDFYTSETCPYKNDSQLAWDTCSGGTGNCGTVCCGQCFSFPVSQSCAGMADSNDCPNA [2NSW NMR - A 1-60]
[10]
  Activity: 0
[11]
  Activity: 0

## KILRGVAKKIMRTFLRRISKDILTGKK [compound 3325]
[9]
  Activity: 1
[3]
  Activity: 1
[8]
  Activity: 1

## GKWMSLLKHILK [compound 3649]
[9]
  Activity: 1
[3]
  Activity: 1
[8]
  Activity: 1

## LGGIVSAVKKIVDFLG [compound 1903]
[9]
  Activity: 1
[3]
  Activity: 1
[8]
  Activity: 1

## IFGAIWKGISSLL [satpdb10136]
[4]
  Activity: 0
[3]
  Activity: 0

## KGRGKRRREKQRPCDKPRR [satpdb15140]
[4]
  Activity: 1
[5]
  Activity: 1
[6]
  Activity: 1
[7]
  Activity: 1

## HRHQGPIFDTRPSPFNPNQPRPGPIY [satpdb10283]
[4]
  Activity: 0
[3]
  Activity: 0

## SPWSSCSVTCGDGVITRIR [satpdb28070]
[4]
  Activity: 1
[5]
  Activity: 1
[6]
  Activity: 1
[7]
  Activity: 1

## GLLDIVKKVVGAFGSL [compound 4414]
[4]
  Activity: 1
[5]
  Activity: 1
[6]
  Activity: 1
[7]
  Activity: 1
